Laboratory results reported in US20120029187A1, “HALOALKYLSULFONANILIDE DERIVATIVE” (Nissan Chemical Industries, Ltd., priority 2009, published 2012).

How the values were obtained:
Assay type in all cases: in vivo
barnyardgrass [1] = experiment: Test Example 1: herbicidal effects in preemergence treatment under submerged conditions; conditions: dose 2.52 g/a
Outline: (§1)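 Alluvial soil was flooded to 4 cm, sown with barnyardgrass, bulrush and ducksalad, and planted with 2.5-leaf rice seedlings. On the seeding day, water-diluted emulsifiable concentrates were applied to the water surface at set doses (g/a). After three weeks in a 25 to 30° C. greenhouse, mortality was scored 0–5.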

bulrush [2] = experiment: as above; conditions: dose 2.52 g/a
Outline: as §1

ducksalad [3] = experiment: as above; conditions: dose 2.52 g/a
Outline: as §1

transplanted rice = experiment: Test Example 1: preemergence treatment under submerged conditions, effect on crop; conditions: dose 2.52 g/a
Outline: as §1

barnyardgrass [4] = experiment: Test Example 2: herbicidal effects during the vegetation period under submerged conditions; conditions: treatment during the vegetation period under submerged conditions; dose 2.52 g/a
Outline: (§2)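 Barnyardgrass, bulrush and ducksalad were co-sown in alluvial soil flooded to 4 cm and grown in a greenhouse at 25 to 30° C. At the 1- or 2-leaf stage, water-diluted emulsifiable concentrates went onto the water surface at set doses (g/a). Herbicidal effect was scored three weeks later on a graded scale.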

bulrush [5] = experiment: as above; conditions: treatment during the vegetation period under submerged conditions; dose 2.52 g/a
Outline: as §2

ducksalad [6] = experiment: as above; conditions: treatment during the vegetation period under submerged conditions; dose 2.52 g/a
Outline: as §2

Italian ryegrass [7] = experiment: Test Example 3: herbicidal effects in soil treatment; conditions: dose 3.2 g/a
Outline: (§3)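 Seeds were sown in sterilized diluvial soil and covered with about 1.5 cm of soil. Compounds, formulated as emulsifiable concentrates and diluted with water, were sprayed evenly over the soil surface at set doses in g/a. Herbicidal effect was scored on a rating scale three weeks later.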

barnyardgrass [8] = experiment: as above; conditions: dose 3.2 g/a
Outline: as §3

common chickweed [9] = experiment: as above; conditions: dose 3.2 g/a
Outline: as §3

common lambsquater [10] = experiment: as above; conditions: dose 3.2 g/a
Outline: as §3

common ragweed [11] = experiment: as above; conditions: dose 3.2 g/a
Outline: as §3

giant foxtail [12] = experiment: as above; conditions: dose 3.2 g/a
Outline: as §3

large crabgrass [13] = experiment: as above; conditions: dose 3.2 g/a
Outline: as §3

posumbu knotweed [14] = experiment: as above; conditions: dose 3.2 g/a
Outline: as §3

redroot pigweed [15] = experiment: as above; conditions: dose 3.2 g/a
Outline: as §3

velvetleaf [16] = experiment: as above; conditions: dose 3.2 g/a
Outline: as §3

water foxtail [17] = experiment: as above; conditions: dose 3.2 g/a
Outline: as §3

Italian ryegrass [18] = experiment: Test Example 4: herbicidal effect in foliage treatment; conditions: dose 3.2 g/a, three weeks after application
Outline: (§4)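 14-day greenhouse-grown plants (25–30° C) sprayed on foliage with diluted EC; dose as g/a; effect graded after 3 weeks.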

barnyardgrass [19] = experiment: as above; conditions: dose 3.2 g/a, three weeks after application
Outline: as §4

beadstraw = experiment: as above; conditions: dose 3.2 g/a, three weeks after application
Outline: as §4

common chickweed [20] = experiment: as above; conditions: dose 3.2 g/a, three weeks after application
Outline: as §4

common lambsquater [21] = experiment: as above; conditions: dose 3.2 g/a, three weeks after application
Outline: as §4

common ragweed [22] = experiment: as above; conditions: dose 3.2 g/a, three weeks after application
Outline: as §4

giant foxtail [23] = experiment: as above; conditions: dose 3.2 g/a, three weeks after application
Outline: as §4

large crabgrass [24] = experiment: as above; conditions: dose 3.2 g/a, three weeks after application
Outline: as §4

posumbu knotweed [25] = experiment: as above; conditions: dose 3.2 g/a, three weeks after application
Outline: as §4

redroot pigweed [26] = experiment: as above; conditions: dose 3.2 g/a, three weeks after application
Outline: as §4

velvetleaf [27] = experiment: as above; conditions: dose 3.2 g/a, three weeks after application
Outline: as §4

water foxtail [28] = experiment: as above; conditions: dose 3.2 g/a, three weeks after application
Outline: as §4

SMILES | A: barnyardgrass, herbicidal effect (evaluation scale 0-5) (barnyardgrass [1]) | B: bulrush, herbicidal effect (evaluation scale 0-5) (bulrush [2]) | C: ducksalad, herbicidal effect (evaluation scale 0-5) (ducksalad [3]) | a: transplanted rice, effect on crop (evaluation scale 0-5) (transplanted rice) | A: barnyardgrass, herbicidal effect (evaluation scale 0-5) (barnyardgrass [4]) | B: bulrush, herbicidal effect (evaluation scale 0-5) (bulrush [5]) | C: ducksalad, herbicidal effect (evaluation scale 0-5) (ducksalad [6]) | H: Italian ryegrass, herbicidal effect (evaluation scale 0-5) (Italian ryegrass [7]) | A: barnyardgrass, herbicidal effect (evaluation scale 0-5) (barnyardgrass [8]) | N: common chickweed, herbicidal effect (evaluation scale 0-5) (common chickweed [9]) | L: common lambsquater, herbicidal effect (evaluation scale 0-5) (common lambsquater [10]) | J: common ragweed, herbicidal effect (evaluation scale 0-5) (common ragweed [11]) | E: giant foxtail, herbicidal effect (evaluation scale 0-5) (giant foxtail [12]) | D: large crabgrass, herbicidal effect (evaluation scale 0-5) (large crabgrass [13]) | M: posumbu knotweed, herbicidal effect (evaluation scale 0-5) (posumbu knotweed [14]) | K: redroot pigweed, herbicidal effect (evaluation scale 0-5) (redroot pigweed [15]) | I: velvetleaf, herbicidal effect (evaluation scale 0-5) (velvetleaf [16]) | G: water foxtail, herbicidal effect (evaluation scale 0-5) (water foxtail [17]) | H: Italian ryegrass, herbicidal effect (Italian ryegrass [18]) | A: barnyardgrass, herbicidal effect (barnyardgrass [19]) | other results
CCC(=O)N(c1ccccc1CN1COC(C)(CC)CC1=O)S(=O)(=O)C(F)(F)F (stereo not drawn) [II-41] | 5 (mortality of 90% or above (nearly complete death)) | 5 (mortality of 90% or above (nearly complete death)) | 5 (mortality of 90% or above (nearly complete death)) | 0 (mortality of less than 5% (almost ineffective)) | 5 (mortality of 90% or above (nearly complete death)) | 5 (mortality of 90% or above (nearly complete death)) | 5 (mortality of 90% or above (nearly complete death)) | 5 (mortality of 90% or above (nearly complete death)) | 5 (mortality of 90% or above (nearly complete death)) | 5 (mortality of 90% or above (nearly complete death)) | 3 (mortality of at least 40% and less than 70%) | 4 (mortality of at least 70% and less than 90%) | 4 (mortality of at least 70% and less than 90%) | 4 (mortality of at least 70% and less than 90%) | 4 (mortality of at least 70% and less than 90%) | 2 (mortality of at least 20% and less than 40%) | 5 (mortality of 90% or above (nearly complete death)) | 5 (mortality of 90% or above (nearly complete death)) | 4 (mortality of at least 70% and less than 90%) | 5 (mortality of 90% or above (nearly complete death)) | O: beadstraw, herbicidal effect (beadstraw): 4 (mortality of at least 70% and less than 90%); N: common chickweed, herbicidal effect (common chickweed [20]): 3 (mortality of at least 40% and less than 70%); L: common lambsquater, herbicidal effect (common lambsquater [21]): 2 (mortality of at least 20% and less than 40%); J: common ragweed, herbicidal effect (common ragweed [22]): 3 (mortality of at least 40% and less than 70%); E: giant foxtail, herbicidal effect (giant foxtail [23]): 4 (mortality of at least 70% and less than 90%); D: large crabgrass, herbicidal effect (large crabgrass [24]): 1 (mortality of at least 5% and less than 20%); M: posumbu knotweed, herbicidal effect (posumbu knotweed [25]): 0 (mortality of less than 5% (almost ineffective)); K: redroot pigweed, herbicidal effect (redroot pigweed [26]): 0 (mortality of less than 5% (almost ineffective)); I: velvetleaf, herbicidal effect (velvetleaf [27]): 5 (mortality of 90% or above (nearly complete death)); G: water foxtail, herbicidal effect (water foxtail [28]): 5 (mortality of 90% or above (nearly complete death))
CCOC(=O)N(c1ccccc1CN1COC(C)(CC)CC1=O)S(=O)(=O)C(F)(F)F (stereo not drawn) [II-42] | 5 (mortality of 90% or above (nearly complete death)) | 5 (mortality of 90% or above (nearly complete death)) | 5 (mortality of 90% or above (nearly complete death)) | 0 (mortality of less than 5% (almost ineffective)) | 5 (mortality of 90% or above (nearly complete death)) | 5 (mortality of 90% or above (nearly complete death)) | 5 (mortality of 90% or above (nearly complete death)) | 5 (mortality of 90% or above (nearly complete death)) | 5 (mortality of 90% or above (nearly complete death)) | 5 (mortality of 90% or above (nearly complete death)) | 0 (mortality of less than 5% (almost ineffective)) | 4 (mortality of at least 70% and less than 90%) | 1 (mortality of at least 5% and less than 20%) | 5 (mortality of 90% or above (nearly complete death)) | 4 (mortality of at least 70% and less than 90%) | 3 (mortality of at least 40% and less than 70%) | 5 (mortality of 90% or above (nearly complete death)) | 5 (mortality of 90% or above (nearly complete death)) | 3 (mortality of at least 40% and less than 70%) | 5 (mortality of 90% or above (nearly complete death)) | O: beadstraw, herbicidal effect (beadstraw): 3 (mortality of at least 40% and less than 70%); N: common chickweed, herbicidal effect (common chickweed [20]): 4 (mortality of at least 70% and less than 90%); L: common lambsquater, herbicidal effect (common lambsquater [21]): 3 (mortality of at least 40% and less than 70%); J: common ragweed, herbicidal effect (common ragweed [22]): 3 (mortality of at least 40% and less than 70%); E: giant foxtail, herbicidal effect (giant foxtail [23]): 5 (mortality of 90% or above (nearly complete death)); D: large crabgrass, herbicidal effect (large crabgrass [24]): 3 (mortality of at least 40% and less than 70%); M: posumbu knotweed, herbicidal effect (posumbu knotweed [25]): 0 (mortality of less than 5% (almost ineffective)); K: redroot pigweed, herbicidal effect (redroot pigweed [26]): 0 (mortality of less than 5% (almost ineffective)); I: velvetleaf, herbicidal effect (velvetleaf [27]): 5 (mortality of 90% or above (nearly complete death)); G: water foxtail, herbicidal effect (water foxtail [28]): 5 (mortality of 90% or above (nearly complete death))
